In ChEMBL document CHEMBL1201862, “PubChem BioAssay data set” (2004):
Calls of active or inactive are those of the source.

What was measured:
[1] = Luminescence Cell-Based Dose Retest to Confirm Inhibitors of Cancer Stem Cells. [Related pubchem assays (depositor defined):AID2717, AID2721]; format: functional; conditions: Homo sapiens
[2] = viability loss of HMLE_sh_eGFP cells – cell-based, luminescence, counter-screen for HMLE_sh_ECad selective toxicity project, dose response (AID 463074); format: functional, Homo sapiens;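 note: HMLE human mammary epithelial cells expressing control shRNA against eGFP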
Jurkat [3] = assay: SAR Analysis of small molecule inhibitors of […] specific antigen receptor-induced NF-kB activation in a Jurkat cell line using a luminescence assay - Set 3. [Related pubchem assays (depositor defined):AID435022, AID435025, AID465]; format: functional, cell-based; conditions: Homo sapiens
HEK293 [4] = assay: SAR Analysis of small molecule inhibitors of B-cell specific antigen receptor-induced NF-kB activation in a HEK-293T cell line using a luminescence assay - Set 2. [Related pubchem assays (depositor defined):AID435022, AID435025, AID489021]; format: functional, cell-based; conditions: Homo sapiens
HEK293 [5] = assay: HEK293T cell viability loss, resazurin readout – resazurin fluorescence, cytotoxicity control for NF-kB activator project, SAR follow-up (AID 493251); format: functional, cell-based; conditions: Homo sapiens
[6] = biological target: T1, Neuropeptides B/W receptor type 1 (Homo sapiens, UniProt P48145); assay: human NPBW1 receptor blockade, IC50 – cell-based, fluorescence, dose response, set 5, late-stage follow-up (AID 588566); format: functional
T1 sequence (P48145 whole entry): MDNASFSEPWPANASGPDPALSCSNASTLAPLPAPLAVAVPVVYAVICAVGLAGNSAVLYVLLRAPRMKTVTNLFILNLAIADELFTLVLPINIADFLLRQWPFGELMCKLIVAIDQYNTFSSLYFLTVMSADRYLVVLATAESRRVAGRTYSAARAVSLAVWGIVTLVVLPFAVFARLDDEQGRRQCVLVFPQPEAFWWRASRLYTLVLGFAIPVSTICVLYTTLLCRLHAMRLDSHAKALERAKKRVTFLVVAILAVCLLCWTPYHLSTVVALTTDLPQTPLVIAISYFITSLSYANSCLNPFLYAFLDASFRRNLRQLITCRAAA

[7] = biological target: Melanin-concentrating hormone receptor 1 (Homo sapiens, UniProt Q99705); assay: Late-stage fluorescence-based counterscreen for antagonists of the G-protein coupled receptor 7 (GPR7): cell-based dose response assay to identify antagonists of the melanin-concentrating hormone receptor 1 (MCHR1) Set 5.; format: functional
Sequence of Melanin-concentrating hormone receptor 1 (Q99705 whole entry): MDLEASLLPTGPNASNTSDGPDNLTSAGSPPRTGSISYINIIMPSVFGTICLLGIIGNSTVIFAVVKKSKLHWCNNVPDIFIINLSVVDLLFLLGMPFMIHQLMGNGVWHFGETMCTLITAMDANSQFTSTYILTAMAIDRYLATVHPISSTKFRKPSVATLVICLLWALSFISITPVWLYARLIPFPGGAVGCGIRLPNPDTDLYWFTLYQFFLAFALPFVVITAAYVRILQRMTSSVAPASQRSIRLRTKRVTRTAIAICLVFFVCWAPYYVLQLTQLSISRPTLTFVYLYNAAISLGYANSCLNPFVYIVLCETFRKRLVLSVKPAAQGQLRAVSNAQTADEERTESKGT

[8] = THP-1 cell cytotoxicity, dose response, cytotoxicity control for non-replicating M. tuberculosis project (AID 489025); format: functional
cells [9] = format: functional
HEK293 [10] = assay: EBV LMP1 TES2 canonical NF-kB signalling blockers – cell-based, HEK293, luciferase, cherry-pick, dose response (AID 588343); format: functional; conditions: Homo sapiens
[11] = biological target: Latent membrane protein 1 (Human herpesvirus 4 (strain B95-8), UniProt P03230); assay: LMP1 TES1 pathway selectivity over dsRED control – imaging, HEK293T, dual-color eGFP/dsRED, cherry-picks, selectivity assay for LMP1 NF-kB inhibitor project, dose response (AID 588398); format: functional, cell-based
Sequence of Latent membrane protein 1 (P03230 whole entry): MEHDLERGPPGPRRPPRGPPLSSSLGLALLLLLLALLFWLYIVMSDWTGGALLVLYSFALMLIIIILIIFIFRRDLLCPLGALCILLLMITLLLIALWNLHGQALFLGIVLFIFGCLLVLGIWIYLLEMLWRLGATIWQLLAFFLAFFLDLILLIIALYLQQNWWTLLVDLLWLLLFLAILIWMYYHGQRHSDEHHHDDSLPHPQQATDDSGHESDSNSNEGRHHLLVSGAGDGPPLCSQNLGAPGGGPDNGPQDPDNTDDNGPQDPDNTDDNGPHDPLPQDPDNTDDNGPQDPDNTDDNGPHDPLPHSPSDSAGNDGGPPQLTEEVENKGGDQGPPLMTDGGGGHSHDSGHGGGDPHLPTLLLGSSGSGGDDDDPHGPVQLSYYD

[12] = biological target: T2, Polyadenylate-binding protein 1 (Homo sapiens, UniProt P11940); assay: MLLE binding blockers, Cy5 peptide tracer – biochemical, fluorescence polarization, Cy5-PAM2 peptide, secondary, miRNA deadenylation inhibitor project, dose response (AID 602260); format: functional; conditions: read-out: IC50_Mean
T2 sequence (P11940 whole entry, the tested form may be a part): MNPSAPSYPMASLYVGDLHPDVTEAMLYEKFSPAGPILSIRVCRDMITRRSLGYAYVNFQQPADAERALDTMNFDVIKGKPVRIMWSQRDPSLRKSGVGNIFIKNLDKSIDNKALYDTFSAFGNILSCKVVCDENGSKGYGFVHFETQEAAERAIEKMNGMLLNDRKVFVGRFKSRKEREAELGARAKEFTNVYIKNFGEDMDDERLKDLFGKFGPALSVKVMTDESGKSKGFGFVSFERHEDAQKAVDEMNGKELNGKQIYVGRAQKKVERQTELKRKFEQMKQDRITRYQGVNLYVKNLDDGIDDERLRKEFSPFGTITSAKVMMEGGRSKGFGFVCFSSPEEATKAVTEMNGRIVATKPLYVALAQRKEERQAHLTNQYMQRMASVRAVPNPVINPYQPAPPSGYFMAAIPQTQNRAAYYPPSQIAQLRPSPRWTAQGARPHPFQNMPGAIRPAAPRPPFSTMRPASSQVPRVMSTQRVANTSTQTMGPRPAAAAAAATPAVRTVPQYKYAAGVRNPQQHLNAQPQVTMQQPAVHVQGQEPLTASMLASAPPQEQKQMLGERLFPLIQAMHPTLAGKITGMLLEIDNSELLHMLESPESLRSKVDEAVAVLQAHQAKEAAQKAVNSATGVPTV

[13] = biological target: T2, Polyadenylate-binding protein 1; assay: MLLE domain peptide-binding blockers, IC50 – biochemical, fluorescence polarization, FITC-PAM2 peptide, dose response (AID 602259); format: functional; conditions: read-out: IC50_Mean
BJ [14] = assay: BJ-TERT fibroblast viability loss – cell-based, RAS-independent, luminescence, dose response (AID 1933); format: functional; conditions: Homo sapiens
cells [15] = format: functional, cell-based
BJ [16] = assay: cells; format: functional, cell-based; conditions: Homo sapiens
cells [17] = format: functional, cell-based; remark: listed apart in the source
BJ [18] = assay: BJ-TERT-LT-ST fibroblast viability loss – cell-based, RAS-independent, luminescence, dose response (AID 1935); format: functional; conditions: Homo sapiens;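 note: BJ fibroblasts immortalized with TERT plus LT and ST oncogenes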
[19] = DRD fibroblast viability loss – cell-based, non-viral oncogenic, luminescence, dose response (AID 1934); format: functional; conditions: Homo sapiens
[20] = biological target: Heat shock protein HSP 90-alpha (Homo sapiens, UniProt P07900); format: functional, organism-based
Jurkat [21] = assay: SAR Analysis of small molecule inhibitors of T-cell specific antigen receptor-induced NF-kB activation in a Jurkat cell line using a luminescence assay - Set 2. [Related pubchem assays (depositor defined):AID435003, AID435012, AID465]; format: functional, cell-based; conditions: Homo sapiens
BJ [22] = assay: growth inhibition of engineered Ras-driven BJ cells – cell-based, alamar blue fluorescence, cherrypicked samples, dose response (AID 2631); format: functional; conditions: Homo sapiens;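 note: confirmatory dose-response assay in RAS-dependent BJ fibroblasts engineered with TERT, LT and ST, with cytotoxicity read by fluorescence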
HEK293 [23] = assay: SAR Analysis of small molecule inhibitors of T-cell specific antigen receptor-induced NF-kB activation in a HEK-293T cell line using a luminescence assay - Set 2. [Related pubchem assays (depositor defined):AID435003, AID435012, AID489026]; format: functional, cell-based; conditions: Homo sapiens
[24] = reduction of Shn3 3'UTR-driven luciferase in osteoblasts – cell-based, Clone20 osteoblasts, firefly luciferase, cherry-picked, dose response (AID 624132); format: functional;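 note: firefly luciferase luminescence from reporter carrying the Shn3 3'UTR in osteoblasts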
[25] = loss of viability in HepG2 cells – cell-based, CellTiter-Glo, cherry-picked, cytotoxicity control for Shn3 inhibitor project, dose response (AID 624134); format: functional
[26] = non-specific 3'UTR reporter inhibition in Clone20-Shn3RL – cell-based, Renilla luciferase, cherry-picked, counter-screen for Shn3 inhibitor project, dose response (AID 624133); format: functional

## O=C1Nc2cc(C(=O)N3CCc4ccccc4C3)ccc2S/C1=C\c1ccccc1
[1]
  AC50: 3.43 µM (active)
[2]
  AC50: 55.5 µM (active)

## CCCNC(=O)CSCc1nc(-c2ccc(OCC)cc2)oc1C
Jurkat [3]
  IC50: > 80 µM (inactive)
HEK293 [4]
  IC50: 74.7 µM (inactive)
HEK293 [5]
  IC50: > 80 µM (inactive)

## CCOc1ccc(-c2nc(CSCC(=O)NCCc3ccc(Cl)cc3)c(C)o2)cc1
Jurkat [3]
  IC50: 63.8 µM (inactive)
HEK293 [4]
  IC50: > 80 µM (inactive)
HEK293 [5]
  IC50: > 80 µM (inactive)

## Cc1ccc(C(C#N)c2c(Cl)cnn(Cc3cccc4ccccc34)c2=O)cc1 (stereo not given)
[6]
  IC50: 0.381 µM (active)
[7]
  IC50: 1.24 µM (active)

## CN1C(=O)N(C)c2ccc(C=O)c3cccc1c23
[8]
  CC50: 24.6 µM (active)
Cells [9]
  IC50: 31.1 µM (active)
HEK293 [10]
  AC50: 6.36 µM (active)
[11]
  AC50: 0.774 µM (active)
[12]
  IC50: 37.9 µM (inactive)
[13]
  IC50: 58.8 µM (inactive)

## CCCCC(=O)NC(c1ccc(C(C)C)cc1)c1ccc2cccnc2c1O (stereo not given)
BJ [14]
  EC50: 0.534 µM (active)
Cells [15]
  EC50: 2.94 µM (active)
BJ [16]
  EC50: 2.67 µM (active)
Cells [17]
  EC50: > 350 µM (not active)
BJ [18]
  EC50: 1.5 µM (inconclusive)
[19]
  EC50: 4.19 µM (active)
[20]
  AC50: 5.41 µM (active)
HEK293 [5]
  IC50: 20.2 µM (inactive)
Jurkat [21]
  IC50: 3.17 µM (active)
BJ [22]
  EC50: 2.13 µM (active)
HEK293 [23]
  IC50: 6.67 µM (active)
[24]
  AC50: 0.57 µM (active)
[25]
  AC50: > 70 µM (inactive)
[26]
  AC50: 0.331 µM (active)
